Like-named read-outs stand apart in the source and are kept apart here.
Legend:
soil urease = conditions: surface application of urea; literature; cited from earlier work
[1] = pH of the solutions of urea and additive compound; type: physicochemical; conditions: urea-only solution
urease [2] = conditions: Example 6
urease [3] = assay: Ammonia volatilization from soil-applied urea solution with additive compound (continuous air purge, ammonia collected in sulfuric acid, indophenol blue method)
Method: (§1) The amount of additive compound set forth in Table 1 below was added to a solution of reagent grade urea having a urea concentration of 13850 micrograms of nitrogen per 2 ml, together with the desired amount of compound. This urea concentration was selected to be equivalent to an application rate of 100 lbs of nitrogen per acre. A standard sample containing only urea in the same concentration and an unfertilized blank (2 ml of distilled water) also were applied to soil.
The amounts of additive compound were calculated to provide the desired quantity of that compound appropriate for application of a 50 percent w/v solution of urea (i.e., 50 grams of urea per 100 ml of water) to supply 100 lbs of nitrogen per acre. Each additive compound was used at 5 and 10 percent of the volume of urea solution. The treatments were therefore equivalent to the application 198 liters (52.3 US gallons) of urea solution per acre together with 9.9 liters (2.6 US gallons) of additive compound at the low rate or 19.8 liters (5.2 US Gallons) at the high rate.
Soil was treated and ammonia measurements were taken in accordance with the following method. Plastic containers with a diameter of 4.2 cm were used for this study. Each container was filled with 60 g of a sandy soil and moistened with 12 mls water to 86% of its water holding capacity. All treatments were surface applied in 2 mls of solution, bringing the moisture level up to field capacity.
The air was humidified before introduction by bubbling it through distilled water, then passing it through a cotton plug to remove moisture droplets. Evolved ammonia was collected by passing the air through 50 mls of 0.5 M sulfuric acid. This was sufficient to collect 3 times the total amount of nitrogen added, ensuring that the solution never became saturated with ammonia. The amounts of ammonia collected in the sulfuric acid solutions were determined by the indophenol blue method.
Ammonia measurements were taken at 2 and 7 days after application. […] The amounts of ammonia collected are expressed as a percentage of the total that was applied.
as §1, with “Table 3” for “Table 1”
The amounts of additive compound were calculated to provide the desired quantity of that compound appropriate for application of a 50 percent w/v solution of urea (i.e., 50 grams of urea per 100 ml of water) to supply 100 lbs of nitrogen per acre. The urea and additive compounds were applied to soil in accordance with the method described in Example 1.
Calcium polysulfide solution was added at a rate of 1, 2, 4 and 8 percent of the volume of urea solution. K-Sul® was added at a rate of 5 and 10 percent of the volume of urea solution. Ammonia measurements were taken at 2 and 7 days after application. […] The amounts of ammonia collected are expressed as a percentage of the total that was applied.
In each treatment, the appropriate amount of product was added to a solution of reagent grade urea and made to 100 mls in volumetric flasks. Concentrations were adjusted to ensure that the 2 mls of each solution provided 13850 micrograms of nitrogen together with the required amount of product to provide the equivalent of an application rate of 100 lbs of nitrogen per acre. A standard sample contained only urea and an unfertilized blank was treated with 2 mls of distilled water.

nitrification = conditions: combination with UAN or banded urea solution; literature; cited from earlier work
[4] = Example 1, urea only, no additive
[5] = Example 3, urea only, no additive
[6] = Example 5, urea only, no additive

[Ca+2].[Cl-].[Cl-] [Calcium chloride]
effect on ammonia volatilization (in words) (soil urease): delays the start of ammonia volatilization

NC(N)=O [Urea]
Solution pH ([1]; Example 2): 8.4 | Solution pH ([1]; Example 4): 9.0 | % of N applied (urease [2]; 100 lbs N per ac): 2.07% | Ammonia collected, mg Day 2 (urease [2]; 100 lbs N per ac): 0.14 mg | Ammonia collected, mg Day 7 (urease [2]; 100 lbs N per ac): 2.32 mg | Ammonia collected, mg Day 14 (urease [2]; 100 lbs N per ac): 0.78 mg | Ammonia collected, mg Day 21 (urease [2]; 100 lbs N per ac): 0.00 mg | Ammonia collected, mg Day 28 (urease [2]; 100 lbs N per ac): 0.00 mg | Ammonia collected, mg Total (urease [2]; 100 lbs N per ac): 3.25 mg | % of N applied (urease [2]; 200 lbs N per ac): 3.17% | Ammonia collected, mg Day 2 (urease [2]; 200 lbs N per ac): 0.31 mg | Ammonia collected, mg Day 7 (urease [2]; 200 lbs N per ac): 4.86 mg | Ammonia collected, mg Day 14 (urease [2]; 200 lbs N per ac): 4.31 mg | Ammonia collected, mg Day 21 (urease [2]; 200 lbs N per ac): 0.47 mg | Ammonia collected, mg Day 28 (urease [2]; 200 lbs N per ac): 0.00 mg | Ammonia collected, mg Total (urease [2]; 200 lbs N per ac): 9.94 mg | % Loss 0-2 days (urease [3]; [4]): 22.0% | % Loss 3-7 days (urease [3]; [4]): 3.9% | % Loss Total (urease [3]; [4]): 25.9% | % lost 0-2 days (urease [3]; [5]): 25.56% | % lost 3-7 days (urease [3]; [5]): 11.45% | % lost Total (urease [3]; [5]): 37.01% | % lost 0-2 days (urease [3]; [6]): 25.50% | % lost 3-7 days (urease [3]; [6]): 8.25% | % lost Total (urease [3]; [6]): 33.75%

ammonium polyphosphate
effect on nitrification (in words) (nitrification): only a weak effect

ammonium polysulfide
effect on nitrification (in words) (nitrification): no effect on nitrification | urease inhibition and ammonia volatilization inhibition, comparison between products (in words) (urease [3]; summary of Examples 1-4): less urease inhibition activity than calcium polysulfide

— patent US20060185411A1, “Calcium polysulfide, potassium polysulfide, calcium thiosulfate, and magnesium thiosulfate as urease inhibitors” (Tessenderlo Kerley, Inc., priority 2005, published 2006)
